Test system: RAW264.7
Test: Anti-inflammatory activity in Mus musculus (mouse) RAW264.7 cells assessed as inhibition of PMA-induced macrophages respiratory burst measured up to 30 min by chemiluminescence method
Format: functional, cell-based
Settings: RAW264.7, 0.5 h

Row | IC50 [µM] | Structure (SMILES)
1 | 78.7 | COC(=O)C1=CO[C@@H](O[C@@H]2O[C@H](CO[C@@H]3O[C@H](COC(=O)/C=C/c4ccc(O)cc4)[C@@H](O)[C@H](O)[C@H]3O)[C@@H](O)[C@H](O)[C@H]2O)[C@@H]2C(CO)=CC[C@H]12 [6'-O-P-COUMAROYLGENIPIN GENTIOBIOSIDE]
2 | 336 | COc1cc(/C=C/C(=O)O[C@H]2[C@H](O[C@@H]3O[C@H](CO)[C@@H](O)[C@H](O)[C@H]3O)[C@@H](O[C@@H]3OC[C@H](O)[C@H](O)[C@H]3O)[C@H](OCCc3ccc(O)c(O)c3)O[C@@H]2CO)ccc1O [CHIONOSIDE A]
3 | 355 | C[C@@H]1C[C@H]2[C@@H]3CCC4=CC(=O)C=C[C@]4(C)[C@@]3(F)[C@@H](O)C[C@]2(C)[C@@]1(O)C(=O)CO [DEXAMETHASONE]
4 | 320 | COc1cc(/C=C/C(=O)O[C@H]2[C@H](O[C@@H]3O[C@H](CO)[C@@H](O)[C@H](O)[C@H]3O)[C@@H](O[C@@H]3OC[C@H](O)[C@H](O)[C@H]3O)[C@H](OCCc3ccc(O)c(O)c3)O[C@@H]2CO[C@@H]2OC[C@H](O)[C@@H](O)[C@@H]2O)ccc1O [HELIOSIDE C]
5 | 308 | O=C(/C=C/c1ccc(O)cc1)OC[C@H]1O[C@@H](OCCc2ccc(O)c(O)c2)[C@H](O[C@@H]2OC[C@H](O)[C@H](O)[C@H]2O)[C@@H](O[C@@H]2O[C@H](CO)[C@@H](O)[C@H](O)[C@H]2O)[C@@H]1O [ISOARAGOSIDE]
6 | 217 | COC(=O)C1=CO[C@@H](O[C@@H]2O[C@H](CO)[C@@H](O)[C@H](O)[C@H]2O)[C@@H]2C(CO)=C[C@@H](OC[C@H]3O[C@@H](O[C@@H]4OC=C(C(=O)OC)[C@H]5C=C[C@](O)(CO)[C@@H]45)[C@H](O)[C@@H](O)[C@@H]3O)[C@H]12 [ROTUNDUSIDE A]
7 | 31.1 | COC(=O)C1=CO[C@@H](O[C@@H]2O[C@H](CO[C@@H]3O[C@H](COC(=O)/C=C/c4cc(O)c(O)c(O)c4)[C@@H](O)[C@H](O)[C@H]3O)[C@@H](O)[C@H](O)[C@H]2O)[C@@H]2C(CO)=CC[C@H]12 [ROTUNDUSIDE B]
8 | 15.1 | C[C@@H]1O[C@@H](OC[C@H]2O[C@@H](Oc3c(-c4ccc(O)c(O)c4)oc4cc(O)cc(O)c4c3=O)[C@H](O)[C@@H](O)[C@@H]2O)[C@H](O)[C@H](O)[C@H]1O [RUTIN]

From ChEMBL document CHEMBL3045908, “Phenolic and iridoid glycosides from the rhizomes of Cyperus rotundus L” (Med Chem Res, 2013)
